Assay results from patent US12295959B2 (priority 2021, dated 2025).

Experiments:
[1] = target: T1, 5-HT2C edited (accession number AAF35842.1) (Homo sapiens, UniProt P28335, I156V/I160V/N158S); assay: biochemical; format: binding
Target sequence in this assay (P28335 33-458 I156V/N158S/I160V limits assumed): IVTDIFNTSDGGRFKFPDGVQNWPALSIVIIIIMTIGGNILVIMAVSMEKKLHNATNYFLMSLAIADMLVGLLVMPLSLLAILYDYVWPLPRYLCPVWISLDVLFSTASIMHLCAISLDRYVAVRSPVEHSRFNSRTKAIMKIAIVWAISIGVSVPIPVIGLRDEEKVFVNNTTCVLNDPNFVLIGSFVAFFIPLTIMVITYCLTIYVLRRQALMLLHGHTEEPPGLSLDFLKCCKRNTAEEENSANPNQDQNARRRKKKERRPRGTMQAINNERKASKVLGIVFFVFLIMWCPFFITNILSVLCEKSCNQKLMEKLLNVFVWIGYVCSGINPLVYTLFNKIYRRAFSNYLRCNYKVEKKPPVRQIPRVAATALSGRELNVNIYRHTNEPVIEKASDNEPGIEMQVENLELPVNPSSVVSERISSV

[2] = target: T1, 5-HT2C edited (accession number AAF35842.1); assay: cell-based
Target sequence in this assay (P28335 whole entry I156V/N158S/I160V, looked up): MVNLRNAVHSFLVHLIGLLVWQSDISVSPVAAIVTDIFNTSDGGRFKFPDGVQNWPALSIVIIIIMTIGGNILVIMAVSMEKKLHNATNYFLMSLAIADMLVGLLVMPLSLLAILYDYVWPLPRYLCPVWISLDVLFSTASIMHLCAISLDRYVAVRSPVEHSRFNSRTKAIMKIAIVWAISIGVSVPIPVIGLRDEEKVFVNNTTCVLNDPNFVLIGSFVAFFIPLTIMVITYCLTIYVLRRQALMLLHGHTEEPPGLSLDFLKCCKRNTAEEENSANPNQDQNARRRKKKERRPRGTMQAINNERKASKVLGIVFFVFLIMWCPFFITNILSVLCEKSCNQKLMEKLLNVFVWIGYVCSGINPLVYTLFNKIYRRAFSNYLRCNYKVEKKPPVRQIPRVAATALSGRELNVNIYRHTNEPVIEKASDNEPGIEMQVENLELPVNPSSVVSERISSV

5-HT2C = 5-HT2C (Homo sapiens, UniProt P28335, I156V/I160V/N158S); assay: cell-based
Sequence of 5-HT2C (P28335 33-458 I156V/N158S/I160V limits assumed): as the sequence (P28335 33-458 I156V/N158S/I160V limits assumed) above

`Cn1c2c(c3ccc(Oc4ccc(F)cc4)cc31)CCNCC2` [Compound 17, 8-(4-fluorophenoxy)-6-methyl-1,2,3,4,5,6-hexahydroazepino[4,5-b]indole] gave an IC50 [1] of 10 to 100 nM and an EC50 [2] of 1000 to 10000 nM.

For `Cn1c2c(c3c(Oc4ccc(F)cc4)cccc31)CCNCC2` [Compound 23, 10-(4-fluorophenoxy)-6-methyl-1,2,3,4,5,6-hexahydroazepino[4,5-b]indole], the IC50 [1] was 10 to 100 nM and the EC50 [2] was 101 to 1000 nM.

`CN1CCc2[nH]c3c(Br)ccc(OCc4ccccc4)c3c2CC1` [Compound 29, 10-(benzyloxy)-7-bromo-3-methyl-1,2,3,4,5,6-hexahydroazepino[4,5-b]indole] showed an IC50 (5-HT2C) of 10 to 100 nM, an IC50 [1] of less than 10 nM and an EC50 [2] greater than 10000 nM.

`CN1CCc2[nH]c3cc(OCc4ccc(F)cc4)ccc3c2CC1` [Compound 8, 8-((4-fluorobenzyl)oxy)-3-methyl-1,2,3,4,5,6-hexahydroazepino[4,5-b]indole] gave an IC50 (5-HT2C) of 1000 to 10000 nM, an IC50 [1] of 101 to 1000 nM and an EC50 [2] of 1000 to 10000 nM.

For `c1ccc(COc2ccc3c4c([nH]c3c2)CCNCC4)cc1` [Compound 3, 8-(benzyloxy)-1,2,3,4,5,6-hexahydroazepino[4,5-b]indole], the IC50 [1] was 101 to 1000 nM and the EC50 [2] was 101 to 1000 nM.

`CN1CCc2c(n(C)c3cc(Oc4ccccc4)ccc23)CC1` [Compound 14, 3,6-dimethyl-8-phenoxy-1,2,3,4,5,6-hexahydroazepino[4,5-b]indole] showed an IC50 (5-HT2C) greater than 10000 nM, an IC50 [1] of 101 to 1000 nM and an EC50 [2] of 101 to 1000 nM.

For `CN1CCc2[nH]c3cccc(OCc4ccccc4)c3c2CC1` [Compound 2, 10-(benzyloxy)-3-methyl-1,2,3,4,5,6-hexahydroazepino[4,5-b]indole], the IC50 (5-HT2C) was 10 to 100 nM, the IC50 [1] was less than 10 nM and the EC50 [2] was 10 to 100 nM.

`Cn1c2c(c3c(OCc4ccccc4)cccc31)CCNCC2` [Compound 19, 10-(benzyloxy)-6-methyl-1,2,3,4,5,6-hexahydroazepino[4,5-b]indole] showed an IC50 [1] of 10 to 100 nM and an EC50 [2] of 10 to 100 nM.

Work on `Cn1c2c(c3ccc(OCc4ccccc4)cc31)CCNCC2` [Compound 5, 8-(benzyloxy)-6-methyl-1,2,3,4,5,6-hexahydroazepino[4,5-b]indole] yielded an IC50 (5-HT2C) greater than 10000 nM, an IC50 [1] of 101 to 1000 nM and an EC50 [2] of 1000 to 10000 nM.

`CN1CCc2[nH]c3cc(OCc4ccccc4)ccc3c2CC1` [Compound 1, 8-(benzyloxy)-3-methyl-1,2,3,4,5,6-hexahydroazepino[4,5-b]indole] was tested, and the IC50 [1] was 101 to 1000 nM and the EC50 [2] was 1000 to 10000 nM.

Work on `Fc1ccc(COc2ccc3c4c([nH]c3c2)CCNCC4)cc1` [Compound 7, 8-((4-fluorobenzyl)oxy)~1,2,3,4,5,6-hexahydroazepino[4,5-b]indole] yielded an IC50 (5-HT2C) greater than 10000 nM, an IC50 [1] of 101 to 1000 nM and an EC50 [2] of 101 to 1000 nM.

`CN1CCc2c(n(C)c3cc(OCc4ccccc4)ccc23)CC1` [Compound 6, 8-(benzyloxy)-3,6-dimethyl-1,2,3,4,5,6-hexahydroazepino[4,5-b]indole] was tested, and the IC50 [1] was 101 to 1000 nM and the EC50 [2] was 1000 to 10000 nM.

`CN1CCc2[nH]c3cccc(Oc4ccc(F)cc4)c3c2CC1` [Compound 22, 10-(4-fluorophenoxy)-3-methyl-1,2,3,4,5,6-hexahydroazepino[4,5-b]indole] showed an IC50 (5-HT2C) greater than 10000 nM, an IC50 [1] of 10 to 100 nM and an EC50 [2] of less than 10 nM.

Molecule `c1ccc(Oc2cccc3[nH]c4c(c23)CCNCC4)cc1` [Compound 20, 10-phenoxy-1,2,3,4,5,6-hexahydroazepino[4,5-b]indole] has an IC50 [1] of less than 10 nM and an EC50 [2] of less than 10 nM.

For `Fc1ccc(Oc2ccc3c4c([nH]c3c2)CCNCC4)cc1` [Compound 15, 8-(4-fluorophenoxy)-1,2,3,4,5,6-hexahydroazepino[4,5-b]indole], the IC50 [1] was 101 to 1000 nM and the EC50 [2] was 101 to 1000 nM.

Work on `Cn1c2c(c3ccc(Oc4ccccc4)cc31)CCNCC2` [Compound 13, 6-methyl-8-phenoxy-1,2,3,4,5,6-hexahydroazepino[4,5-b]indole] yielded an IC50 [1] of 101 to 1000 nM and an EC50 [2] of 1000 to 10000 nM.

`Cn1c2c(c3ccc(OCc4ccc(F)cc4)cc31)CCNCC2` [Compound 9, 8-((4-fluorobenzyl)oxy)-6-methyl-1,2,3,4,5,6-hexahydroazepino[4,5-b]indole] gave an IC50 [1] of 101 to 1000 nM and an EC50 [2] of 1000 to 10000 nM.

With `c1ccc(Oc2ccc3c4c([nH]c3c2)CCNCC4)cc1` [Compound 11, 8-phenoxy-1,2,3,4,5,6-hexahydroazepino[4,5-b]indole] the IC50 (5-HT2C) was greater than 10000 nM, the IC50 [1] was 101 to 1000 nM and the EC50 [2] was 101 to 1000 nM.

In the case of `CN1CCc2c(n(C)c3cccc(Oc4ccc(F)cc4)c23)CC1` [Compound 24, 10-(4-fluorophenoxy)-3,6-dimethyl-1,2,3,4,5,6-hexahydroazepino[4,5-b]indole], the IC50 (5-HT2C) is reported as 10 to 100 nM, the IC50 [1] is reported as 10 to 100 nM and the EC50 [2] is reported as 101 to 1000 nM.

With `CN1CCc2[nH]c3c(OCc4ccccc4)cccc3c2CC1` [Compound 28, 7-(benzyloxy)-3-methyl-1,2,3,4,5,6-hexahydroazepino[4,5-b]indole] the IC50 (5-HT2C) was 101 to 1000 nM, the IC50 [1] was 101 to 1000 nM and the EC50 [2] was 101 to 1000 nM.

Work on `CN1CCc2[nH]c3cc(Oc4ccccc4)ccc3c2CC1` [Compound 12, 3-methyl-8-phenoxy-1,2,3,4,5,6-hexahydroazepino[4,5-b]indole] yielded an IC50 (5-HT2C) greater than 10000 nM, an IC50 [1] of 101 to 1000 nM and an EC50 [2] of 1000 to 10000 nM.

`Fc1ccc(Oc2cccc3[nH]c4c(c23)CCNCC4)cc1` [Compound 21, 10-(4-fluorophenoxy)-1,2,3,4,5,6-hexahydroazepino[4,5-b]indole] was tested, and the IC50 [1] was less than 10 nM and the EC50 [2] was less than 10 nM.

Work on `CN1CCc2c(n(C)c3cc(Oc4ccc(F)cc4)ccc23)CC1` [Compound 18, 8-(4-fluorophenoxy)-3,6-dimethyl-1,2,3,4,5,6-hexahydroazepino[4,5-b]indole] yielded an IC50 (5-HT2C) of 1000 to 10000 nM, an IC50 [1] of 101 to 1000 nM and an EC50 [2] of 101 to 1000 nM.

`CN1CCc2c(n(C)c3cc(OCc4ccc(F)cc4)ccc23)CC1` [Compound 10, 8-((4-fluorobenzyl)oxy)-3,6-dimethyl-1,2,3,4,5,6-hexahydroazepino[4,5-b]indole] showed an IC50 (5-HT2C) of 1000 to 10000 nM, an IC50 [1] of 101 to 1000 nM and an EC50 [2] of 1000 to 10000 nM.

Molecule `c1ccc(COc2cccc3[nH]c4c(c23)CCNCC4)cc1` [Compound 4, 10-(benzyloxy)-1,2,3,4,5,6-hexahydroazepino[4,5-b]indole] has an IC50 [1] of less than 10 nM and an EC50 [2] of less than 10 nM.

Molecule `CN1CCc2[nH]c3ccc(OCc4ccccc4)cc3c2CC1` [Compound 26, 9-(benzyloxy)-3-methyl-1,2,3,4,5,6-hexahydroazepino[4,5-b]indole] has an IC50 (5-HT2C) of 101 to 1000 nM, an IC50 [1] of 101 to 1000 nM and an EC50 [2] of 101 to 1000 nM.

`c1ccc(COc2ccc3[nH]c4c(c3c2)CCNCC4)cc1` [Compound 25, 9-(benzyloxy)-1,2,3,4,5,6-hexahydroazepino[4,5-b]indole] showed an IC50 (5-HT2C) greater than 10000 nM, an IC50 [1] of 10 to 100 nM and an EC50 [2] of 10 to 100 nM.

Work on `CN1CCc2[nH]c3cc(Oc4ccc(F)cc4)ccc3c2CC1` [Compound 16, 8-(4-fluorophenoxy)-3-methyl-1,2,3,4,5,6-hexahydroazepino[4,5-b]indole] yielded an IC50 (5-HT2C) greater than 10000 nM, an IC50 [1] of 101 to 1000 nM and an EC50 [2] of 1000 to 10000 nM.

For `c1ccc(COc2cccc3c4c([nH]c23)CCNCC4)cc1` [Compound 27, 7-(benzyloxy)-1,2,3,4,5,6-hexahydroazepino[4,5-b]indole], the IC50 [1] was 101 to 1000 nM and the EC50 [2] was 101 to 1000 nM.
